Here are results for one compound from patent publication US12590277B2, “High-throughput acoustofluidic fabrication of cell spheroids” (The Trustees of Indiana University, priority 2019, dated 2026).

In one test the test system is Panc02 cell spheroids. The test is described as follows: MTT cytotoxicity assay, Panc02 cell spheroids culture. In kind it is cell-based, murine. Here is the method: (§1) The cytotoxic effect of the chemotherapeutic drug Gemcitabine (LC Laboratories, Woburn, Mass., USA) on Panc02 cell spheroids culture was compared to the cytotoxic effect on monolayer culture. For the cytotoxic assay, 1×10^4 cells suspended in complete medium were seeded in each well of a 96-well plate. Four (4)-day-old Panc02 spheroids were transferred to a new 96 ultra-low attachment well plate. The next day, the cells and spheroids were treated with different concentrations of Gemcitabine solution (0, 0.1, 1, 10, 25, 50, 100 μM) in sextuplicate wells. After incubating the cells with Gemcitabine for 48 h, 20 microliter (μl) of 3-(4,5-dimethylthiazol-2-yl)-2,5-diphenyltetrazolium bromide (MTT) solution (5 mg/ml) was added into each well, and the cells were incubated for 4 hours. […] Finally, absorbance was recorded at 570 nm using the Epoch™ microplate spectrophotometer (Bio-Tek Instruments, USA). […]
(§2) Parallel experiments were set with traditional 2D monolayer cell cultures to examine differential response of 2D and 3D cell cultures. Cell number and viability were measured using MTT assay after 2 days of Gemcitabine treatment. The IC50 value was calculated. […]

Another test deals with Panc02 cells. The test is described as follows: MTT cytotoxicity assay, Panc02 monolayer culture. It counts as cell-based, murine. Here is the method:
as §1, §2
For orientation: Tetrazolium dyes change colour on reduction, which living cells bring about.

A word on the IC50: it is the point on the concentration scale where inhibition reaches its midpoint. Read a low IC50 as higher potency.

In the case of `Nc1ccn([C@@H]2O[C@H](CO)[C@@H](O)C2(F)F)c(=O)n1` [Gemcitabine], the “response to the drug from regression curves, spheroids” value in the test with Panc02 cell spheroids (0-100 μM Gemcitabine, 48 h) is “dose-dependent response”. Further, the IC50 was found to be 18.38 ± 0.09 µM in the test with Panc02 cell spheroids (Mus musculus, 4-day-old acoustically assembled Panc02 3D spheroids, 48 h (2 days) Gemcitabine treatment) and 9.99 ± 0.07 µM with Panc02 cells (Mus musculus, Panc02, 2D monolayer culture, 48 h (2 days) Gemcitabine treatment). Further, the “response to the drug from regression curves, monolayer” value with Panc02 cells (0-100 μM Gemcitabine, 48 h) is reported as “dose-dependent response”.
